Measured values reported in publication PMC12764492, “Therapeutic 6-thio-deoxyguanosine inhibits telomere elongation in cancer cells by inducing a non-productive stalled telomerase complex” (Nature Communications, 2025).

Target: T1, DNA polymerase δ (Pol δ) holoenzyme (Homo sapiens, UniProt P28340)
T1 construct: gene POLD1; recombinant human Pol δ heterotetramer; with other Pol δ subunits (heterotetramer); PCNA
Assay: primer extension by reconstituted Pol δ holoenzyme with 6-thio-dGTP ([…]) replacing dGTP; inserted, not significantly inhibitory
Type: biochemical

T1 sequence (P28340 whole entry): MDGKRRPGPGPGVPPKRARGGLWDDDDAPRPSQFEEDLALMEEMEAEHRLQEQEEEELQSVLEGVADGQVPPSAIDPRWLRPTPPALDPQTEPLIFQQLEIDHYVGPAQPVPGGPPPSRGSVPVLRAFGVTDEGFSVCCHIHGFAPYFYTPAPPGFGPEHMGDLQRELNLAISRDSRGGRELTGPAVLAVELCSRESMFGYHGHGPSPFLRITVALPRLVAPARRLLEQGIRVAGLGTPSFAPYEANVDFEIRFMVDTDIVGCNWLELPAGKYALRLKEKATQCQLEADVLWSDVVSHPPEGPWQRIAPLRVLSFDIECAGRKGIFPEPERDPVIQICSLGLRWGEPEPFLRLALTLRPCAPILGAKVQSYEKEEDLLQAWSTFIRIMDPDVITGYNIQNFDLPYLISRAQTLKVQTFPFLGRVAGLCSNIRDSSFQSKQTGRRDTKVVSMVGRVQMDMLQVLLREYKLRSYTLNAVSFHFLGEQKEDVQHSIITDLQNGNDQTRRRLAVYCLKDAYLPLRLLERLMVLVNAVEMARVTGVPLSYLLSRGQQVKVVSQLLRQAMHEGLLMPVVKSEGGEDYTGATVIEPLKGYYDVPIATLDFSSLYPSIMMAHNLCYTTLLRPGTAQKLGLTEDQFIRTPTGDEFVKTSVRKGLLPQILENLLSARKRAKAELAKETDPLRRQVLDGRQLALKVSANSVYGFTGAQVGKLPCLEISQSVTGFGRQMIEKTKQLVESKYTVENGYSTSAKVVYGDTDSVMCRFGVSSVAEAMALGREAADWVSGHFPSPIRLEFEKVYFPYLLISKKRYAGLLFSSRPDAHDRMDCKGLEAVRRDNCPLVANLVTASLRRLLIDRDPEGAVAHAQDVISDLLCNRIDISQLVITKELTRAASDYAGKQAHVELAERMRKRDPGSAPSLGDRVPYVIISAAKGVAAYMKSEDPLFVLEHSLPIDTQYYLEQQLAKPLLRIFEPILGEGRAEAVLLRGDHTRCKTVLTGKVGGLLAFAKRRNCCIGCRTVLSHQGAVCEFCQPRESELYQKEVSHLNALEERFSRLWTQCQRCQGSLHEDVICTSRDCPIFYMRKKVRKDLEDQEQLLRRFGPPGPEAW
T1 sequence (P49005 whole entry partner): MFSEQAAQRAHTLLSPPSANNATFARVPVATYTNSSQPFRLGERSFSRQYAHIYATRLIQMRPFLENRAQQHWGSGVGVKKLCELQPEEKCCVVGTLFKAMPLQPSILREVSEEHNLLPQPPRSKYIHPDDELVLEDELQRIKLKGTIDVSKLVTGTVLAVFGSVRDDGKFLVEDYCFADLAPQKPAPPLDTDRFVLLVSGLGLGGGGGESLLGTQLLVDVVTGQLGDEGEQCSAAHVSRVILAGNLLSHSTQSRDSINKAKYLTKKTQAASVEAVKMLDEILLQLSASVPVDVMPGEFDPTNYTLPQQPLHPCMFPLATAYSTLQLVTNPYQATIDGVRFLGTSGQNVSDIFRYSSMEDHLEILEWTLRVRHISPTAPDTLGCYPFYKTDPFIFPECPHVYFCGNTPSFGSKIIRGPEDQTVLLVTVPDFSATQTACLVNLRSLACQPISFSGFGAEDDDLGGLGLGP
T1 sequence (Q15054 2-466 partner): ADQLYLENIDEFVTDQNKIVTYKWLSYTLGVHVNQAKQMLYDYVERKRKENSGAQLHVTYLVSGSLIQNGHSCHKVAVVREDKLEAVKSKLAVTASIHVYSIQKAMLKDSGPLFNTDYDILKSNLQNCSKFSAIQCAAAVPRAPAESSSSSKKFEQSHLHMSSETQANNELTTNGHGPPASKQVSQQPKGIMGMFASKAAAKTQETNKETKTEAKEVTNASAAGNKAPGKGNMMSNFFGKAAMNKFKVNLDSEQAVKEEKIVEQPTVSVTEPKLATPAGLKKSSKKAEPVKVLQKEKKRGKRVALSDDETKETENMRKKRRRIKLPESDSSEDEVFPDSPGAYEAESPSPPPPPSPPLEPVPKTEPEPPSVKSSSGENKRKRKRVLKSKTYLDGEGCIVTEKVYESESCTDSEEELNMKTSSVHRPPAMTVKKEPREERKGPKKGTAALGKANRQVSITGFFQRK
T1 sequence (Q9HCU8 whole entry partner): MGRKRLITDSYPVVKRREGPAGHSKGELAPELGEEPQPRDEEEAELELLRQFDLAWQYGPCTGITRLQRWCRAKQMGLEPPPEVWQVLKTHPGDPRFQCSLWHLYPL
T1 sequence (P12004 whole entry partner): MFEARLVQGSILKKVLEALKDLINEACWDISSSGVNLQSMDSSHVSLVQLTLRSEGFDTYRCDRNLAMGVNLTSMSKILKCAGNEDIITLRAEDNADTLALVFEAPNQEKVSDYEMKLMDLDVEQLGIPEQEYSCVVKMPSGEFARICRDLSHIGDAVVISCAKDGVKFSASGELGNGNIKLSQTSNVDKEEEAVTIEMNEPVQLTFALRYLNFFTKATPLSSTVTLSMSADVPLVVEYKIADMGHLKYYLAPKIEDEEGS

For `Nc1nc2c(ncn2[C@H]2C[C@H](O)[C@@H](COP(=O)(O)OP(=O)(O)OP(=O)(O)O)O2)c(=S)[nH]1` [6-thio-dGTP], the “primer extension by reconstituted Pol δ holoenzyme with 6-thio-dGTP (9.7 μM) rep” value was “The substitution of 6-thio-dGTP for dGTP did not significantly alter primer extension”.
